Results taken from ChEMBL document CHEMBL4359887, “Hitting on the move: Targeting intrinsically disordered protein states of the MDM2-p53 interaction” (Eur J Med Chem, 2019).

Experiments:
Protein Mdm4 = target: T1, Protein Mdm4 (Homo sapiens, UniProt O15151)
T1 sequence (O15151 whole entry): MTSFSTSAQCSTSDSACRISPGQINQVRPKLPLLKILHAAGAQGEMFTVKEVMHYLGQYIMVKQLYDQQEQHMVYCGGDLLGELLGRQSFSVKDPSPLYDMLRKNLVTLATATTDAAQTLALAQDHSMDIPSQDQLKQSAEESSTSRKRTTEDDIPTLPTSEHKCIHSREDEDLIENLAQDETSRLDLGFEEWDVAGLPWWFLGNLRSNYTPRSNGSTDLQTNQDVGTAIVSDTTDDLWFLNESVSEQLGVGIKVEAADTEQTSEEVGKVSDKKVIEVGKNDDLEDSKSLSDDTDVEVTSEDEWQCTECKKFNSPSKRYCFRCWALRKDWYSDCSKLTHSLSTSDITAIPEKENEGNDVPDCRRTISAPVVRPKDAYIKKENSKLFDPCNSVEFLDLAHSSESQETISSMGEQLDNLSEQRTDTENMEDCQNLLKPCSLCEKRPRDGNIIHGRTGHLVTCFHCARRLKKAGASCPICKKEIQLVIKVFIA

[1] = target: E3 ubiquitin-protein ligase Mdm2 (Homo sapiens, UniProt Q00987)
HCT-116 [2] = assay: Induction of apoptosis in human HCT116 cells expressing wild type p53 assessed as necrotic cells at 20 uM measured after 72 hrs by annexin V-FITC/propidium iodide staining-based flow cytometry analysis (reference value: 0.7 %); type: functional
HCT-116 [3] = assay: Induction of apoptosis in human HCT116 cells expressing wild type p53 assessed as live cells at 20 uM measured after 72 hrs by annexin V-FITC/propidium iodide staining-based flow cytometry analysis (reference value: 83.7 %); type: functional
HCT-116 [4] = assay: Induction of apoptosis in human HCT116 cells assessed as late apoptotic cells expressing wild type p53 at 20 uM measured after 72 hrs by annexin V-FITC/propidium iodide staining-based flow cytometry analysis (reference value: 6.8 %); type: functional
HCT-116 [5] = assay: Induction of apoptosis in human HCT116 cells expressing wild type p53 assessed as early apoptotic cells expressing wild type p53 at 20 uM measured after 72 hrs by annexin V-FITC/propidium iodide staining-based flow cytometry analysis (reference value: 8.8 %); type: functional
U2OS = assay: Anticancer activity against human U2OS cells expressing wild-type p53 assessed as inhibition of cell viability measured after 5 days by MTT assay; conditions: 120 h
SAOS-2 = assay: Anticancer activity against p53-deleted human Saos2 cells assessed as inhibition of cell viability measured after 5 days by MTT assay; conditions: SAOS-2, 120 h

Sequence of E3 ubiquitin-protein ligase Mdm2 (Q00987 whole entry): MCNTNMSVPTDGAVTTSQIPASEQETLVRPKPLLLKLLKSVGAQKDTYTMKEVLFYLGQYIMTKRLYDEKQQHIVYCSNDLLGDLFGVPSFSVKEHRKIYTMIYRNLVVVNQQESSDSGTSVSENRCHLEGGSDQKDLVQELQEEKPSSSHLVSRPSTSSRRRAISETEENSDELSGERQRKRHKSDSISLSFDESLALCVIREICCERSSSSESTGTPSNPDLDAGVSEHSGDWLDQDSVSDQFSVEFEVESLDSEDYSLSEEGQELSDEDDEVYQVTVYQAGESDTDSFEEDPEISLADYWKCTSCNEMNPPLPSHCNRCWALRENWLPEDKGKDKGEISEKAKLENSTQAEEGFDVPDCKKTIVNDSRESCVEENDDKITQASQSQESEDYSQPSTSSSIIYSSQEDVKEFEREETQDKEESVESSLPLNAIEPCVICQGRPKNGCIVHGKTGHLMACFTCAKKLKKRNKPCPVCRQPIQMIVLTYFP

Row | Ki (Protein Mdm4) | SMILES | Activity (HCT-116 [2]) | Activity (HCT-116 [3]) | Activity (HCT-116 [4]) | Activity (HCT-116 [5]) | other results
1 | Not Active | CC(C)(C)NC(=O)C(NCc1ccc(OCc2ccccc2Br)cc1)c1c(C(=O)O)[nH]c2cc(Cl)ccc12 (stereo not given) |  |  |  |  | 
2 | Not Active | O=CN(Cc1ccc(OCc2ccc(Br)cc2)cc1)C(C(=O)NC12CC3CC(CC(C3)C1)C2)c1c(C(=O)O)[nH]c2cc(Cl)ccc12 (stereo not given) |  |  |  |  | 
3 | Not Active | CC(C)(C)NC(=O)C(c1c(C(=O)O)[nH]c2cc(Cl)ccc12)N(C=O)Cc1ccc(OCc2ccc([N+](=O)[O-])cc2)cc1 (stereo not given) |  |  |  |  | Ki [1]: Not Active
4 | Not Active | CC(C)(C)NC(=O)C(c1c(C(=O)O)[nH]c2cc(Cl)ccc12)N(C=O)Cc1ccc(OCc2ccncc2)cc1 (stereo not given) |  |  |  |  | 
5 | Not Active | CC(C)(C)NC(=O)C(c1c(C(=O)O)[nH]c2cc(Cl)ccc12)N(C=O)Cc1cc(F)c(OCc2ccccc2)c(F)c1 (stereo not given) |  |  |  |  | 
6 | Not Active | CC(C)(C)NC(=O)C(c1c(C(=O)O)[nH]c2cc(Cl)ccc12)N(C=O)CCc1ccc(OCc2ccc(Br)cc2)cc1 (stereo not given) |  |  |  |  | 
7 | Not Active | CC(C)(C)NC(=O)C(c1c(C(=O)O)[nH]c2cc(Cl)ccc12)N(C=O)Cc1ccc(OCc2c(Cl)cccc2Cl)cc1 (stereo not given) |  |  |  |  | 
8 | Not Active | CC(C)(C)NC(=O)C(c1ccc(Cl)cc1)N(C=O)Cc1ccc(OCc2ccc(Cl)c(Cl)c2)cc1 (stereo not given) |  |  |  |  | Ki [1]: Not Active
9 | Not Active | CN(Cc1ccc(OCc2ccccc2Br)cc1)C(C(=O)NC(C)(C)C)c1c(C(=O)O)[nH]c2cc(Cl)ccc12 (stereo not given) |  |  |  |  | Ki [1]: Not Active
10 | Not Active | O=CN(CCc1ccccc1)C(C(=O)NCCc1ccccc1)c1c(C(=O)O)[nH]c2cc(Cl)ccc12 (stereo not given) |  |  |  |  | 
11 | Not Active | CC(C)(C)NC(=O)C(c1c(C(=O)O)[nH]c2cc(Cl)ccc12)N(C=O)Cc1ccc(OCc2ccsc2)cc1 (stereo not given) |  |  |  |  | Ki [1]: Not Active
12 | Not Active | O=CN(Cc1ccc(OCc2ccc(F)cc2)cc1)C(C(=O)NC12CC3CC(CC(C3)C1)C2)c1c(C(=O)O)[nH]c2cc(Cl)ccc12 (stereo not given) |  |  |  |  | Ki [1]: Not Active
13 | Not Active | CC(=O)N(Cc1ccc(OCc2ccc(F)cc2)cc1)C(C(=O)NC1CCCCC1)c1c(C(=O)O)[nH]c2cc(Cl)ccc12 (stereo not given) |  |  |  |  | 
14 | Not Active | CC(=O)N(Cc1ccc(OCc2ccccc2)cc1)C(C(=O)NC12CC3CC(CC(C3)C1)C2)c1c(C(=O)O)[nH]c2cc(Cl)ccc12 (stereo not given) |  |  |  |  | 
15 | Not Active | O=CN(CCc1ccccc1)C(C(=O)NC12CC3CC(CC(C3)C1)C2)c1c(C(=O)O)[nH]c2cc(Cl)ccc12 (stereo not given) |  |  |  |  | 
16 | Not Active | CCOC(=O)c1[nH]c2cc(Cl)ccc2c1C(C(=O)NC(C)(C)C)N(C=O)Cc1ccc(OCc2ccsc2)cc1 (stereo not given) |  |  |  |  | 
17 | Not Active | CC(C)(C)NC(=O)C(c1c(C(=O)O)[nH]c2cc(Cl)ccc12)N(C=O)Cc1ccc(OCc2cccnc2)cc1 (stereo not given) |  |  |  |  | Ki [1]: Not Active
18 | Not Active | CC(C)(C)NC(=O)C(c1c(C(=O)NCCN2CCOCC2)[nH]c2cc(Cl)ccc12)N(C=O)Cc1ccc(OCc2ccccc2Br)cc1 (stereo not given) |  |  |  |  | 
19 | Not Active | CCOC(=O)c1[nH]c2cc(Cl)ccc2c1C(C(=O)NC(C)(C)C)N(C=O)Cc1ccc(NCc2ccc(Br)cc2)cc1 (stereo not given) | 2.6% | 58.6% | 23.6% | 15.2% | 
20 | Not Active | CC(C)(C)NC(=O)C(c1c(C(=O)O)[nH]c2cc(Cl)ccc12)N(C=O)Cc1ccc(OCCc2ccccc2)cc1 (stereo not given) | 0.5% | 80.7% | 10.7% | 8.1% | 
21 | Not Active | Cn1c(C(=O)O)c(C(C(=O)NC(C)(C)C)N(C=O)Cc2ccc(OCc3ccccc3Br)cc2)c2ccc(Cl)cc21 (stereo not given) |  |  |  |  | Ki [1]: Not Active

Further lines, the compound ahead of its results:

Row | SMILES | Ki (Protein Mdm4) | Activity (HCT-116 [2]) | Activity (HCT-116 [3]) | Activity (HCT-116 [4]) | Activity (HCT-116 [5]) | other results
22 | CCOC(=O)c1[nH]c2cc(Cl)ccc2c1C(C(=O)NC(C)(C)C)N(C=O)Cc1ccc(OCc2ccc(C)cc2)cc1 (stereo not given) |  | 0.9% | 13% | 48.8% | 37.3% | 
23 | Cc1ccc(COc2ccc(CN(C=O)C(C(=O)NC(C)(C)C)c3c(C(=O)O)[nH]c4cc(Cl)ccc34)cc2)cc1 (stereo not given) |  | 4.7% | 76.2% | 8.7% | 10.3% | 
24 | CCOC(=O)c1[nH]c2cc(Cl)ccc2c1C(C(=O)NC(C)(C)C)N(C=O)Cc1ccc(OCc2ccccc2I)cc1 (stereo not given) |  | 1.3% | 86.3% | 6.2% | 6.3% | 
25 | CC(C)(C)NC(=O)C(c1c(C(=O)O)[nH]c2cc(Cl)ccc12)N(C=O)Cc1ccc(OCc2ccccc2I)cc1 (stereo not given) |  | 1.3% | 84.4% | 6.9% | 7.1% | 
26 | COc1cccc(COc2ccc(CN(C=O)C(C(=O)NC(C)(C)C)c3c(C(=O)O)[nH]c4cc(Cl)ccc34)cc2)c1 (stereo not given) |  | 0.8% | 76.8% | 8.9% | 13.5% | 
27 | CC(C)(C)NC(=O)C(c1c(C(=O)O)[nH]c2cc(Cl)ccc12)N(C=O)CCCN1CCOCC1 (stereo not given) | Not Active |  |  |  |  | 
28 | CCOC(=O)c1[nH]c2cc(Cl)ccc2c1C(C(=O)NC(C)(C)C)N(C=O)Cc1ccc(OCc2ccc(Cl)c(Cl)c2)cc1 (stereo not given) |  | 0.4% | 30% | 42.4% | 27.1% | 
29 | CC(C)(C)NC(=O)C(c1cccc(Cl)c1)N(C=O)Cc1ccc(Cl)cc1 (stereo not given) | Not Active |  |  |  |  | Ki [1]: Not Active
30 | CCOC(=O)c1[nH]c2cc(Cl)ccc2c1C(C(=O)NC(C)(C)C)N(C=O)Cc1ccc(OCCc2ccccc2)cc1 (stereo not given) |  | 0.7% | 12.6% | 40.2% | 46.6% | 
31 | CCOC(=O)c1[nH]c2cc(Cl)ccc2c1C(C(=O)NC(C)(C)C)N(C=O)Cc1ccc(OCc2ccc(Br)cc2)cc1 (stereo not given) |  | 0.8% | 37.4% | 19.1% | 42.7% | 
32 | CC(C)(C)NC(=O)C(c1c(C(=O)O)[nH]c2cc(Cl)ccc12)N(C=O)Cc1ccc(OCc2ccc(Br)cc2)cc1 (stereo not given) |  | 0.7% | 77.9% | 11.6% | 9.8% | 
33 | CC(C)(C)NC(=O)C(c1c(C(=O)O)[nH]c2cc(Cl)ccc12)N(C=O)Cc1ccc(OCc2ccc(Cl)c(Cl)c2)cc1 (stereo not given) |  | 1.1% | 81.2% | 7.7% | 10% | 
34 | CC(C)(C)NC(=O)C(c1c(C(=O)O)[nH]c2cc(Cl)ccc12)N(C=O)Cc1ccc(OCc2cc(F)cc(F)c2)cc1 (stereo not given) |  | 0.7% | 79.6% | 7.9% | 11.9% | 
35 | CCOC(=O)c1[nH]c2cc(Cl)ccc2c1C(C(=O)NC(C)(C)C)N(C=O)Cc1ccc(OCc2ccccc2Br)cc1 (stereo not given) |  | 0.7% | 9.9% | 57.2% | 32.3% | 
36 | O=CN(Cc1ccc(OCc2ccccc2Br)cc1)C(C(=O)NC1C2CC3CC(C2)CC1C3)c1c(C(=O)O)[nH]c2cc(Cl)ccc12 (stereo not given) |  |  |  |  |  | EC50 (U2OS): 40 µM; EC50 (SAOS-2): 130 µM
37 | CCOC(=O)c1[nH]c2cc(Cl)ccc2c1C(C(=O)NC(C)(C)C)N(C=O)Cc1ccc(OCc2cccc(Cl)c2)cc1 (stereo not given) |  | 1.2% | 34.5% | 42.7% | 21.6% | 
38 | CC(C)(C)NC(=O)[C@H](c1c(C(=O)O)[nH]c2cc(Cl)ccc12)N(C=O)Cc1ccc(OCc2ccccc2Br)cc1 |  |  |  |  |  | EC50 (U2OS): 130 µM; EC50 (SAOS-2): 200 µM
39 | CCOC(=O)c1[nH]c2cc(Cl)ccc2c1C(C(=O)NC(C)(C)C)N(C=O)Cc1ccc(OCc2cccc(OC)c2)cc1 (stereo not given) |  | 0.8% | 84.8% | 6.1% | 8.3% | 
40 | CCOC(=O)c1[nH]c2cc(Cl)ccc2c1C(C(=O)NC(C)(C)C)N(C=O)Cc1ccc(OCc2cc(F)cc(F)c2)cc1 (stereo not given) |  | 0.5% | 14.1% | 40.2% | 45.2% | 
41 | CC(C)(C)NC(=O)C(c1c(C(=O)O)[nH]c2cc(Cl)ccc12)N(C=O)Cc1ccc(OCc2cccc(Cl)c2)cc1 (stereo not given) |  | 0.9% | 81% | 7.9% | 10.2% | 
42 | CC(C)(C)NC(=O)C(c1c(C(=O)O)[nH]c2cc(Cl)ccc12)N(C=O)Cc1ccc(NCc2ccc(Br)cc2)cc1 (stereo not given) |  | 6% | 65.6% | 18.8% | 9.6% | 
43 | CC(C)(C)NC(=O)C(c1c(C(=O)O)[nH]c2cc(Cl)ccc12)N(C=O)Cc1ccc(OCc2ccccc2Br)cc1 (racemic) |  | 1% | 69.1% | 14.6% | 15.4% | 
44 | COc1ccc(C2=N[C@@H](c3ccc(Cl)cc3)[C@@H](c3ccc(Cl)cc3)N2C(=O)N2CCNC(=O)C2)c(OC(C)C)c1 [NUTLIN-3] |  | 1.2% | 53% | 18.9% | 26.9% | Ki [1]: Not Active
